Measured values: patent publication US10005739B2, “Quinazolinone and isoquinolinone derivative” (CHUGAI SEIYAKU KABUSHIKI KAISHA, priority 2013, dated 2018)

biological target: DDR1 (Homo sapiens (Human), UniProt Q08345); test: Measurement of DDR1 enzyme inhibitory activity (phosphorylation of biotinylated peptide, time-resolved fluorescence); format: biochemical; conditions: human DDR1 enzyme, biotinylated peptide phosphorylation; read-out: DDR1 enzyme inhibition assay IC50
Experimental: 1. Measurement of DDR1 Enzyme Inhibitory Activity
The DDR1 enzyme inhibitory activity was determined with human DDR1 enzyme prepared using the baculovirus expression system, based on the inhibitory activity of phosphorylation of a biotinylated peptide ([…]) by the enzyme. The phosphorylated biotinylated peptide was detected using time-resolved fluorescence, with an anti-phosphorylated tyrosine antibody conjugated with europium cryptate and streptavidin conjugated with XL665 which is a derivative of allophycocyanin.

Chain of DDR1 (Q08345 19-913): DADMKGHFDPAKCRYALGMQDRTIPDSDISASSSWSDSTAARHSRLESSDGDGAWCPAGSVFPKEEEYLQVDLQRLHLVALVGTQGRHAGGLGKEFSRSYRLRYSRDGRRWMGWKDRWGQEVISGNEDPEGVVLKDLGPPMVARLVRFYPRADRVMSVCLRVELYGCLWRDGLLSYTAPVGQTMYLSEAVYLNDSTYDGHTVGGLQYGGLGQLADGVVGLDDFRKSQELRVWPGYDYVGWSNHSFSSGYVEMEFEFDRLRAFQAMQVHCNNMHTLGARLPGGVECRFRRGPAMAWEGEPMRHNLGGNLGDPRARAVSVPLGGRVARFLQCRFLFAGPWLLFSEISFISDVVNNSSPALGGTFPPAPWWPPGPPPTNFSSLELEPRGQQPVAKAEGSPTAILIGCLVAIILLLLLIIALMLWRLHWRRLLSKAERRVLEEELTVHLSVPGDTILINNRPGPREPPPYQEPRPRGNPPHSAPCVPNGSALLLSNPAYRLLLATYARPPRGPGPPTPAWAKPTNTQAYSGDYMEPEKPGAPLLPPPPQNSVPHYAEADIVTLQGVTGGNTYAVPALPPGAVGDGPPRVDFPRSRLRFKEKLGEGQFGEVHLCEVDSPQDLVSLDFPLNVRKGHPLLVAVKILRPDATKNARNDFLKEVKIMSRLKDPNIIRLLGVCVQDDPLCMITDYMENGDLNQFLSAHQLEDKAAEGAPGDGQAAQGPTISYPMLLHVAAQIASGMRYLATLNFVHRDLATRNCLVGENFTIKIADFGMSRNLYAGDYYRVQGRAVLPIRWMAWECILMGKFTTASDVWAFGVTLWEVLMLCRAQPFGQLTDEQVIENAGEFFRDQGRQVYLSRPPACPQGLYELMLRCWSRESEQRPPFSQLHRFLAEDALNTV

| SMILES | IC50 [nM] |
| --- | --- |
| CCSc1ccc(Cl)cc1Nn1cnc2c(Br)cc(C)cc2c1=O [Compound A-1, 8-Bromo-3-(5-chloro-2-ethylsulfanylanilino)-6-methylquinazolin-4-one] | 170 |
| CCS(=O)(=O)c1ccc(Cl)cc1Nn1cnc2c(Br)cc(C)cc2c1=O [Compound A-2, 8-Bromo-3-(5-chloro-2-ethylsulfonylanilino)-6-methylquinazolin-4-one] | 40 |
| CCSc1ccc(Cl)cc1Nn1cnc2c(-c3ccc(F)cc3)cc(C)cc2c1=O [Compound A-3, 3-(5-Chloro-2-ethylsulfanylanilino)-8-(4-fluorophenyl)-6-methylquinazolin-4-one] | 110 |
| CCS(=O)(=O)c1ccc(Cl)cc1Nn1cnc2c(-c3ccc(F)cc3)cc(C)cc2c1=O [Compound A-4, 3-(5-Chloro-2-ethylsulfonylanilino)-8-(4-fluorophenyl)-6-methylquinazolin-4-one] | 1350 |
| CCSc1ccc(Cl)cc1Nn1cnc2cc(Br)c(C)cc2c1=O [Compound A-5, 7-Bromo-3-(5-chloro-2-ethylsulfanylanilino)-6-methylquinazolin-4-one] | 880 |
| CCS(=O)(=O)c1ccc(Cl)cc1Nn1cnc2cc(Br)c(C(F)F)cc2c1=O [Compound A-6, 7-Bromo-3-(5-chloro-2-ethylsulfonylanilino)-6-(difluoromethyl)quinazolin-4-one] | 70 |
| CCSc1ccc(Cl)cc1Nn1cnc2cc(C)c(Br)cc2c1=O [Compound A-7, 6-Bromo-3-(5-chloro-2-ethylsulfanylanilino)-7-methylquinazolin-4-one] | 800 |
| CCS(=O)(=O)c1ccc(Cl)cc1Nn1cnc2cc(C)c(Br)cc2c1=O [Compound A-8, 6-Bromo-3-(5-chloro-2-ethylsulfonylanilino)-7-methylquinazolin-4-one] | 550 |
| CCSc1ccc(Cl)cc1Nn1cnc2ccc(C(F)(F)F)cc2c1=O [Compound A-9, 3-(5-Chloro-2-ethylsulfanylanilino)-6-(trifluoromethyl)quinazolin-4-one] | 180 |
| CCS(=O)(=O)c1ccc(Cl)cc1Nn1cnc2ccc(C(F)(F)F)cc2c1=O [Compound A-10, 3-(5-Chloro-2-ethylsulfonylanilino)-6-(trifluoromethyl)quinazolin-4-one] | 120 |
| CCSc1ccc(Cl)cc1Nn1cnc2c(Cl)cc(C(F)(F)F)cc2c1=O [Compound A-11, 8-Chloro-3-(5-chloro-2-ethylsulfanylanilino)-6-(trifluoromethyl)quinazolin-4-one] | 400 |
| CCS(=O)(=O)c1ccc(Cl)cc1Nn1cnc2c(I)cc(C(F)(F)F)cc2c1=O [Compound A-13, 3-(5-Chloro-2-ethylsulfonylanilino)-8-iodo-6-(trifluromethyl)quinazolin-4-one] | 240 |
| CCSc1ccc(Cl)cc1Nn1cnc2cnc(Cl)cc2c1=O [Compound A-14, 6-Chloro-3-(5-chloro-2-ethylsulfanylanilino)pyrido[3,4-d]pyrimidin-4-one] | 130 |
| CCS(=O)(=O)c1ccc(Cl)cc1Nn1cnc2cnc(Cl)cc2c1=O [Compound A-15, 6-Chloro-3-(5-chloro-2-ethylsulfonylanilino)pyrido[3,4-d]pyrimidin-4-one] | 1230 |
| CCS(=O)(=O)c1ccc(Cl)cc1Nn1cnc2ncc(Br)cc2c1=O [Compound A-17, 6-Bromo-3-(5-chloro-2-ethylsulfonylanilino)pyrido[2,3-d]pyrimidin-4-one] | 270 |
| CCS(=O)(=O)c1ccc(Cl)cc1Nn1cnc2ncc(C#N)cc2c1=O [Compound A-18, 3-(5-Chloro-2-ethylsulfonylanilino)-4-oxopyrido[2,3-d]pyrimidine-6-carbonitrile] | 1710 |
| CCSc1ccc(Cl)cc1Nn1cnc2cnc(F)cc2c1=O [Compound A-19, 3-(5-Chloro-2-ethylsulfanylanilino)-6-fluoropyrido[3,4-d]pyrimidin-4-one] | 510 |
| CCS(=O)(=O)c1ccc(Cl)cc1Nn1cnc2cnc(F)cc2c1=O [Compound A-20, 3-(5-Chloro-2-ethylsulfonylanilino)-6-fluoropyrido[3,4-d]pyrimidin-4-one] | 7640 |
| CCSc1ccc(Cl)cc1Nn1cnc2cnc(OC)cc2c1=O [Compound A-21, 3-(5-Chloro-2-ethylsulfanylanilino)-6-methoxypyrido[3,4-d]pyrimidin-4-one] | 270 |
| CCS(=O)(=O)c1ccc(Cl)cc1Nn1cnc2cnc(OC)cc2c1=O [Compound A-22, 3-(5-Chloro-2-ethylsulfonylanilino)-6-methoxypyrido[3,4-d]pyrimidin-4-one] | 1930 |
| CCSc1ccc(Cl)cc1Nn1cnc2ncc(C(F)(F)F)cc2c1=O [Compound A-23, 3-(5-Chloro-2-ethylsulfanylanilino)-6-(trifluoromethyl)pyrido[2,3-d]pyrimidin-4-one] | 160 |
| CCS(=O)(=O)c1ccc(Cl)cc1Nn1cnc2ncc(C(F)(F)F)cc2c1=O [Compound A-24, 3-(5-Chloro-2-ethylsulfonylanilino)-6-(trifluoromethyl)pyrido[2,3-d]pyrimidin-4-one] | 190 |

| SMILES | IC50 [nM] |
| --- | --- |
| CCSc1ccc(Cl)cc1Nn1cnc2ccc(F)cc2c1=O [Compound A-28, 3-(5-Chloro-2-ethylsulfanylanilino)-6-fluoroquinazolin-4-one] | 88 |
| CCS(=O)(=O)c1ccc(Cl)cc1Nn1cnc2ccc(F)cc2c1=O [Compound A-29, 3-(5-Chloro-2-ethylsulfonylanilino)-6-fluoroquinazolin-4-one] | 340 |
| CCSc1ccc(Cl)cc1Nn1cnc2cc(F)c(F)cc2c1=O [Compound A-30, 3-(5-Chloro-2-ethylsulfanylanilino)-6,7-difluoroquinazolin-4-one] | 100 |
| CCS(=O)(=O)c1ccc(Cl)cc1Nn1cnc2cc(F)c(F)cc2c1=O [Compound A-31, 3-(5-Chloro-2-ethylsulfonylanilino)-6,7-difluoroquinazolin-4-one] | 380 |
| CCSc1ccc(Cl)cc1Nn1cnc2c(Br)cc(C(F)(F)F)cc2c1=O [Compound A-32, 8-Bromo-3-(5-chloro-2-ethylsulfanylanilino)-6-(trifluoromethyl)quinazolin-4-one] | 290 |
| CCSc1ccc(Cl)cc1Nn1cnc2ccc(OC)cc2c1=O [Compound A-34, 3-(5-Chloro-2-ethylsulfanylanilino)-6-methoxyquinazolin-4-one] | 68 |
| CCS(=O)(=O)c1ccc(Cl)cc1Nn1cnc2ccc(OC)cc2c1=O [Compound A-35, 3-(5-Chloro-2-ethylsulfonylanilino)-6-methoxyquinazolin-4-one] | 95 |
| CCOc1ccc2ncn(Nc3cc(Cl)ccc3SCC)c(=O)c2c1 [Compound A-36, 3-(5-Chloro-2-ethylsulfanylanilino)-6-ethoxyquinazolin-4-one] | 250 |
| CCOc1ccc2ncn(Nc3cc(Cl)ccc3S(=O)(=O)CC)c(=O)c2c1 [Compound A-37, 3-(5-Chloro-2-ethylsulfonylanilino)-6-ethoxyquinazolin-4-one] | 430 |
| CCSc1ccc(Cl)cc1Nn1cnc2cc(OC)c(OC)cc2c1=O [Compound A-38, 3-(5-Chloro-2-ethylsulfanylanilino)-6,7-dimethoxyquinazolin-4-one] | 480 |
| CCS(=O)(=O)c1ccc(Cl)cc1Nn1cnc2cc(OC)c(OC)cc2c1=O [Compound A-39, 3-(5-Chloro-2-ethylsulfonylanilino)-6-dimethoxyquinazolin-4-one] | 1750 |
| CCSc1ccc(Cl)cc1Nn1cnc2cc3c(cc2c1=O)OCO3 [Compound A-40, 7-(5-Chloro-2-ethylsulfanylanilino)-[1,3]dioxolo[4,5-g]quinazolin-8-one] | 350 |
| CCS(=O)(=O)c1ccc(Cl)cc1Nn1cnc2cc3c(cc2c1=O)OCO3 [Compound A-41, 7-(5-Chloro-2-ethylsulfonylanilino)-[1,3]dioxolo[4,5-g]quinazolin-8-one] | 1950 |
| CCSc1ccc(Cl)cc1Nn1cnc2cc3c(cc2c1=O)OCCO3 [Compound A-42, 3-(5-Chloro-2-ethylsulfanylanilino)-7,8-dihydro-[1,4]dioxino[2,3-g]quinazolin-4-one] | 3100 |
| CCS(=O)(=O)c1ccc(Cl)cc1Nn1cnc2cc3c(cc2c1=O)OCCO3 [Compound A-43, 3-(5-Chloro-2-ethylsulfonylanilino)-7,8-dihydro-[1,4]dioxino[2,3-g]quinazolin-4-one] | 600 |
| CCSc1ccc(Cl)cc1Nn1cnc2ccc(OC(F)(F)F)cc2c1=O [Compound A-44, 3-(5-Chloro-2-ethylsulfanylanilino)-6-(trifluoromethoxy)quinazolin-4-one] | 290 |
| CCSc1ccc(Cl)cc1Nn1cnc2c(Br)cc(OC(F)(F)F)cc2c1=O [Compound A-46, 8-Bromo-3-(5-chloro-2-ethylsulfanylanilino)-6-(trifluoromethoxy)quinazolin-4-one] | 420 |
| CCSc1ccc(Cl)cc1Nn1cnc2ccc(SC)cc2c1=O [Compound A-48, 3-(5-Chloro-2-ethylsulfanylanilino)-6-methylsulfanylquinazolin-4-one] | 200 |
| CCS(=O)(=O)c1ccc(Cl)cc1Nn1cnc2ccc(S(C)(=O)=O)cc2c1=O [Compound A-49, 3-(5-Chloro-2-ethylsulfonylanilino)-6-methylsulfonylquinazolin-4-one] | 2130 |
| CCSc1ccc(Cl)cc1Nn1cnc2ccc(C)cc2c1=O [Compound A-50, 3-(5-Chloro-2-ethylsulfanylanilino)-6-methylquinazolin-4-one] | 57 |
| CCS(=O)(=O)c1ccc(Cl)cc1Nn1cnc2ccc(C)cc2c1=O [Compound A-51, 3-(5-Chloro-2-ethylsulfonylanilino)-6-methylquinazolin-4-one] | 110 |
| CCSc1ccc(Cl)cc1Nn1cnc2ccc(CC)cc2c1=O [Compound A-52, 3-(5-Chloro-2-ethylsulfanylanilino)-6-ethylquinazolin-4-one] | 200 |
